Patent publication US20060073220A1, “Cinnamon extract enriched for polyphenols and methods of preparing same” (priority 2004, published 2006)
In brackets after ≈: the same amount, converted by molar mass.

How the values were obtained:
Influenza B = experiment: antiviral assay, Influenza B; assay type: cell-based; details: positive control, MDCK cells
Adenovirus Type 1 = experiment: antiviral assay, Adenovirus Type 1; assay type: cell-based
Punta Toro A = experiment: antiviral assay, Punta Toro A; assay type: cell-based, Punta Toro A virus
Rhinovirus Type 2 = experiment: antiviral assay, Rhinovirus Type 2; assay type: cell-based
West Nile Virus = experiment: antiviral assay, West Nile Virus; assay type: cell-based; details: positive control, Vero cells
[1] = system: RSV (respiratory syncytial virus); experiment: RSV (respiratory syncytial virus) assay; assay type: cell-based
[2] = system: PIV (parainfluenza virus); experiment: PIV (parainfluenza virus) assay; assay type: cell-based
Influenza A = Influenza A assay (strain not stated for the control); assay type: cell-based, influenza A virus
HSV-1 = experiment: antiviral assay, HSV-1; assay type: cell-based, Herpes simplex virus 1; details: positive control, HHF cells
HSV-2 = experiment: antiviral assay, HSV-2; assay type: cell-based, Herpes simplex virus 2; details: positive control, HHF cells

| SMILES | ED50 Influenza B assay (Influenza B) | ED50 Adenovirus type 1 assay (Adenovirus Type 1) | ED50 Punta Toro A assay (Punta Toro A) | ED50 Rhinovirus assay (Rhinovirus Type 2) | ED50 West Nile viral assay (West Nile Virus) | ED50 RSV assay [1] | ED50 PVI (parainfluenza virus) assay [2] | ED50 Influenza A assay (Influenza A) | ED50 HSV1 assay (HSV-1) | ED50 HSV2 assay (HSV-2) |
| --- | --- | --- | --- | --- | --- | --- | --- | --- | --- | --- |
| NC(=O)c1ncn([C@@H]2O[C@H](CO)[C@@H](O)[C@H]2O)n1 [ribivarin] | 2 to 3 µg/mL | 10 µg/mL (≈ 40.9 µM) | 20 µg/mL (≈ 81.9 µM) | < 1 µg/mL | 20 µg/mL (≈ 81.9 µM) | 20 µg/mL (≈ 81.9 µM) | 20 µg/mL (≈ 81.9 µM) | 2 to 3 µg/mL | – | – |
| Nc1nc2c(ncn2COCCO)c(=O)[nH]1 [acyclovir] | – | – | – | – | – | – | – | – | 1 to 2 µg/mL | 1 to 2 µg/mL |
